Assay results taken from US7858388B2, “MS based peptide and protein sequencing via reactions of lysine residues with peroxycarbonate compounds” (Vanderbilt University, priority 2004, dated 2010).

Assay: Half-life of peroxycarbonate 1 in basic phosphate buffer (formation of p-nitrophenoxide)
Type: physicochemical
Details: pH 8.2 phosphate buffer (50% MeOH)
Experimental: Reaction of p-nitrophenylchloroformate with tert-butyl hydroperoxide gave the peroxycarbonate 1 which was isolated by silica chromatography as a white solid. Pyridine was added dropwise to a 0° C. methylene chloride solution of the hydroperoxide and chloroformate. The product was characterized by ^1H and ^13C NMR, HRMS, mp=55-56° C. In basic water or water acetonitrile mixtures, 1 gave an almost immediate yellow color indicative of the formation of p-nitrophenoxide. The half-life of 1 in pH 8.2 phosphate buffer (50% MeOH) is approximately 112 sec. In basic aqueous acetonitrile solutions, αN-acetyl lysine methyl ester was converted cleanly to 2 on reaction with 10 equivalents of 1. The peroxycarbamate 2 (Ac-LPC-OMe) is stable to chromatography and can be fully characterized by spectroscopy and HRMS (“LPC” is used herein for lycine peroxycarbamate).

**Q.** Which half-life does the source give for CC(C)(C)OOC(=O)Oc1ccc([N+](=O)[O-])cc1 [compound 1] here?
**A.** ~1.87 min
